# From patent US4136173A (priority 1977, dated 1979)
# Structures can show the parent of a compound that is named as a salt.
# Tests used:
# [1] = intranasal evaluation of LH-RH gum formulations; format: in vivo; settings: 2% LH-RH, […] locust bean gum, […] xanthan gum, 0.5-1% phenylethyl alcohol
# Method: II. -- Formulations containing 2% LH-RH, 0.25% locust bean gum, 0.25% xanthan gum, and 0.5-1% phenylethyl alcohol were also prepared and evaluated intranasally.
# [2] = system: neuroleptically treated rats; test: ovulation after subcutaneous LH-RH in neuroleptically treated rats; format: in vivo, rat
# Method: I. -- Formulations containing the polypeptide, gonadorelin also known as luteinizing hormone-releasing hormone (LH-RH) were evaluated for potency.
# Prepared by hydrating each gum separately at 80° C. for 30 minutes and treated with a cell disrupter for 2 minutes. The gum solutions were mixed in the presence of hydrochloric acid by adjusting the pH to 3. Chlorobutanol was then dissolved in the mixed gum solution and filtered. LH-RH was then dissolved in the gum solution over a dose range of 0 to 500 nanograms.
# The test solutions were administered subcutaneously to neuroleptically treated rats.
# Rabbits' eyes = test: average miotic response intensity (pilocarpine hydrochloride formulations); format: in vivo, rabbit
# Method: rabbit's eyes were treated with 2 drops of the test solution, and pupillary diameters were measued with a cathetometer. The miotic response intensity was computed by taking the difference in pupillary diameters at zero time and time "T" (i.e., hours after instillation) and dividing it by the pupillary diameter at zero time. The table below illustrates the average miotic response for all eyes as a function of hours after instillation.
# Formulations containing pilocarpine hydrochloride were prepared as in Example 2 and are illustrated as follows: […]
smiles,measurement,setting,value
CC(C)C[C@H](NC(=O)CNC(=O)[C@H](Cc1ccc(O)cc1)NC(=O)[C@H](CO)NC(=O)[C@H](Cc1c[nH]c2ccccc12)NC(=O)[C@H](Cc1cnc[nH]1)NC(=O)[C@@H]1CCC(=O)N1)C(=O)N[C@@H](CCCNC(=N)N)C(=O)N1CCC[C@H]1C(=O)NCC(N)=O [LH-RH],LH-RH release after intranasal administration,[1],stimulates LH-RH release at a level greater than formulations without the mixed gums
same,Number of Ova Found,"[2]; 31 NG s.c., Control (No Gums)",0
same,Number of Rats Ovulating,"[2]; 31 NG s.c., Control (No Gums)",0/10
same,Number of Ova Found,"[2]; 31 NG s.c., with 0.5% Gums",0
same,Number of Rats Ovulating,"[2]; 31 NG s.c., with 0.5% Gums",0/10
same,Number of Ova Found,"[2]; 62 NG s.c., Control (No Gums)",7
same,Number of Rats Ovulating,"[2]; 62 NG s.c., Control (No Gums)",2/10
same,Number of Ova Found,"[2]; 62 NG s.c., with 0.5% Gums",8.7 ± 1.4
same,Number of Rats Ovulating,"[2]; 62 NG s.c., with 0.5% Gums",3/10
same,Number of Ova Found,"[2]; 125 NG s.c., Control (No Gums)",8 ± 1.2
same,Number of Rats Ovulating,"[2]; 125 NG s.c., Control (No Gums)",5/10
same,Number of Ova Found,"[2]; 125 NG s.c., with 0.5% Gums",10.6 ± 0.6
same,Number of Rats Ovulating,"[2]; 125 NG s.c., with 0.5% Gums",7/10
same,Number of Ova Found,"[2]; 250 NG s.c., Control (No Gums)",10.1 ± 0.5
same,Number of Rats Ovulating,"[2]; 250 NG s.c., Control (No Gums)",8/10
same,Number of Ova Found,"[2]; 250 NG s.c., with 0.5% Gums",11.2 ± 0.7
same,Number of Rats Ovulating,"[2]; 250 NG s.c., with 0.5% Gums",9/10
same,Number of Ova Found,"[2]; 500 NG s.c., Control (No Gums)",10.5 ± 0.6
same,Number of Rats Ovulating,"[2]; 500 NG s.c., Control (No Gums)",10/10
same,Number of Ova Found,"[2]; 500 NG s.c., with 0.5% Gums",11.5 ± 0.5
same,Number of Rats Ovulating,"[2]; 500 NG s.c., with 0.5% Gums",10/10
same,LH release and induction of ovulation,"[2]; s.c., fluphenazine dihydrochloride pre-treated proestrous rats",released LH and subsequently induced ovulation
CC[C@@H]1C(=O)OC[C@@H]1Cc1cncn1C [pilocarpine hydrochloride],potentiation of miotic response by gums,Rabbits' eyes; combined locust bean and xanthan gums,potentiate the miotic response
CC[C@@H]1C(=O)OC[C@@H]1Cc1cncn1C [pilocarpine],possible reduction of dose with gums,Rabbits' eyes; combined use of locust bean and xanthan gums,up to one fifth
